Tested on: Lactobacillus plantarum - clinical strain
Test: Determination of the MIC value of totarol, broth dilution in 96-well plates with OD and quantitative culture
Type: cell-based
Settings: for OD, average of 3 measurements / OD: 620 nm
Procedure: Test of antibacterial activity of totarol using DMI (dimethylisosorbide) as a solvent.
A suspension of 0.5 McF in physiological saline (suspension density 10^8 cfu/ml) was prepared from a 24-hour culture of a standard strain. 1 ml of the suspension was collected to 9 ml of a TSB broth ([…]). Suspensions with a dilution of 10^−6 were prepared in the described way. A suspension with a cell density of 10^5 cfu/ml was selected for further investigations. For each strain, 2 96-well plates were prepared: the first one was intended for the OD measurement, the second one—for quantitative culture on solid media. • A/ to wells B1-D1, B2-D2 and B-D 4-11, 100 µl of the broth were added; • B/ to wells B3-D3, 200 µl of the broth were added; • C/ to wells B1-D1, 1 µl of stock I was added; • D/ to wells B2-D2, 1 µl of stock II was added; • E/ to wells B3-D3, 2 µl of stock III were added. Using a multichannel pipette, 100 µl of the sample were collected from each of the B3-D3 wells and placed in wells B4-D4 (mixing by sucking the content in and letting it out for 5 times). The pipette tips were replaced and 100 µl of the content were collected from of the B4-D4 wells, and placed in wells B5-D5, mixing as previously. These operations were repeated through the wells B11-D11. The content in the B11-D11 wells was mixed, and 100 µl of the fluid were collected and discarded. This way, a series of dilutions of totarol samples in DMI in the range of 0.32% to 0.0004% was obtained. Then, 100 µl of a corresponding bacterial culture were added to the wells B, C, D 1-11. In consequence, a change in the final concentration range occurred, to 0.16%-0.0002%. Control Preparation: • Negative control: 100 µl of the broth+1 pl DMI were added to the Al well. • Positive control (I): 100 µl of the broth with the bacterial culture were added to the wells E1-G1. • Diluent positive control (II): 100 µl of the broth with the bacterial culture+1 pl DMI were added to the wells E2-G2. The OD value in the individual wells was read at the wavelength of 620 nm (read time 0). From the second 96-well plate, a culture was inoculated by a quantitative method from every dilution onto a well with a proper solid medium, and incubated for 24 h at 37° C. under aerobic or anaerobic conditions, depending on the strain. The plates were incubated under aerobic conditions or in an atmosphere of an elevated CO2 concentration (for the strains requiring it) in an incubator at 37° C. The OD was read after 8 h, 16 h, and 24 h, respectively. Before every OD measurement, the contents of the wells were mixed delicately. In parallel to the OD readout, cultures we inoculated from the second 96-well plate, from every dilution, into plates with a proper solid medium, and incubated for 24 h at 37° C., under aerobic or anaerobic conditions. For the analysis of the experimental results, an average value of the OD measurement obtained from three repetitions in the individual times (0, 8, 16, and 24 h) for the individual microbes (Gardnerella vaginalis, Streptococcus agalactiae, Enterococcus faecalis, Lactobacillus gasseri/plantarum) was taken. Additionally, the number of bacteria grown on solid media was taken into account. The results of the tests confirm the specific, concentration-dependent selectiveness, and the high antibacterial effectiveness of totarol against the pathogenic microorganisms: Gardnerella vaginalis, Streptococcus agalactiae, Enterococcus faecalis at low MIC values safe for bacteria of the Lactobacillus genus.

`CC(C)c1c(O)ccc2c1CC[C@H]1C(C)(C)CCC[C@]21C` [Totarol, totarol] was tested. Which MIC value (L. plantarum) did it give?
Its MIC value is 0.08%.

What about the “viable count by quantitative culture (cfu/ml)” value (shortened to “viable count”) (totarol 0.0002%, 0 h) of the same compound?
Its value is 3.9 × 10^5 cfu/ml.

And the “OD, average of 3 measurements” value (totarol 0.0002%, 0 h)?
The value was 0.291.

And the “viable count” value (totarol 0.0002%, 8 h)?
The value was 3.5 × 10^5 cfu/ml.

What about the “OD, average of 3 measurements” value (totarol 0.0002%, 8 h) of the same compound?
The value was 0.305.

And the “viable count” value (totarol 0.0002%, 16 h)?
Its value is 4.2 × 10^6 cfu/ml.

And the “OD, average of 3 measurements” value (totarol 0.0002%, 16 h)?
The value was 0.854.

And the “viable count” value (totarol 0.0002%, 24 h)?
Its value is 2.9 × 10^7 cfu/ml.

What about the OD (totarol 0.0002%, 24 h) of the same compound?
Its OD is 1.469.

And the “viable count” value (totarol 0.0004%, 0 h)?
The value was 2.1 × 10^5 cfu/ml.

And the “OD, average of 3 measurements” value (totarol 0.0004%, 0 h)?
Its value is 0.304.

And the “viable count” value (totarol 0.0004%, 8 h)?
The value was 2 × 10^5 cfu/ml.

What about the “OD, average of 3 measurements” value (totarol 0.0004%, 8 h) of the same compound?
Its value is 0.309.

And the “viable count” value (totarol 0.0004%, 16 h)?
Its value is 3.9 × 10^6 cfu/ml.

What about the “OD, average of 3 measurements” value (totarol 0.0004%, 16 h) of the same compound?
Its value is 0.892.

What about the “viable count” value (totarol 0.0004%, 24 h) of the same compound?
The value was 3.1 × 10^7 cfu/ml.

What about the OD (totarol 0.0004%, 24 h) of the same compound?
Its OD is 1.508.

What about the “viable count” value (totarol 0.0007%, 0 h) of the same compound?
The value was 6.5 × 10^5 cfu/ml.

What about the “OD, average of 3 measurements” value (totarol 0.0007%, 0 h) of the same compound?
The value was 0.292.

What about the “viable count” value (totarol 0.0007%, 8 h) of the same compound?
Its value is 4.5 × 10^5 cfu/ml.

What about the “OD, average of 3 measurements” value (totarol 0.0007%, 8 h) of the same compound?
Its value is 0.300.

What about the “viable count” value (totarol 0.0007%, 16 h) of the same compound?
The value was 8.1 × 10^6 cfu/ml.

And the “OD, average of 3 measurements” value (totarol 0.0007%, 16 h)?
The value was 0.902.

What about the “viable count” value (totarol 0.0007%, 24 h) of the same compound?
The value was 5.1 × 10^7 cfu/ml.

And the OD (totarol 0.0007%, 24 h)?
Its OD is 1.504.

And the “viable count” value (totarol 0.0013%, 0 h)?
Its value is 3.8 × 10^5 cfu/ml.

And the “OD, average of 3 measurements” value (totarol 0.0013%, 0 h)?
Its value is 0.293.

And the “viable count” value (totarol 0.0013%, 8 h)?
Its value is 3.2 × 10^5 cfu/ml.

What about the “OD, average of 3 measurements” value (totarol 0.0013%, 8 h) of the same compound?
Its value is 0.305.

And the “viable count” value (totarol 0.0013%, 16 h)?
Its value is 5.1 × 10^6 cfu/ml.

What about the “OD, average of 3 measurements” value (totarol 0.0013%, 16 h) of the same compound?
Its value is 0.913.

What about the “viable count” value (totarol 0.0013%, 24 h) of the same compound?
Its value is 4.1 × 10^7 cfu/ml.

And the OD (totarol 0.0013%, 24 h)?
The OD was 1.521.

What about the “viable count” value (totarol 0.0025%, 0 h) of the same compound?
The value was 2.8 × 10^5 cfu/ml.

And the “OD, average of 3 measurements” value (totarol 0.0025%, 0 h)?
Its value is 0.284.

And the “viable count” value (totarol 0.0025%, 8 h)?
Its value is 1.0 × 10^5 cfu/ml.

What about the “OD, average of 3 measurements” value (totarol 0.0025%, 8 h) of the same compound?
Its value is 0.303.

And the “viable count” value (totarol 0.0025%, 16 h)?
The value was 8.4 × 10^6 cfu/ml.

What about the “OD, average of 3 measurements” value (totarol 0.0025%, 16 h) of the same compound?
The value was 0.914.

What about the “viable count” value (totarol 0.0025%, 24 h) of the same compound?
The value was 1.4 × 10^7 cfu/ml.

What about the OD (totarol 0.0025%, 24 h) of the same compound?
The OD was 1.552.

What about the “viable count” value (totarol 0.005%, 0 h) of the same compound?
The value was 4.2 × 10^5 cfu/ml.

And the “OD, average of 3 measurements” value (totarol 0.005%, 0 h)?
Its value is 0.288.

And the “viable count” value (totarol 0.005%, 8 h)?
Its value is 1.2 × 10^5 cfu/ml.

What about the “OD, average of 3 measurements” value (totarol 0.005%, 8 h) of the same compound?
The value was 0.300.

And the “viable count” value (totarol 0.005%, 16 h)?
Its value is 1.8 × 10^6 cfu/ml.

And the “OD, average of 3 measurements” value (totarol 0.005%, 16 h)?
The value was 0.895.

What about the “viable count” value (totarol 0.005%, 24 h) of the same compound?
The value was 3.8 × 10^7 cfu/ml.

What about the OD (totarol 0.005%, 24 h) of the same compound?
Its OD is 1.476.

And the “viable count” value (totarol 0.01%, 0 h)?
Its value is 5.5 × 10^5 cfu/ml.

What about the “OD, average of 3 measurements” value (totarol 0.01%, 0 h) of the same compound?
Its value is 0.295.

And the “viable count” value (totarol 0.01%, 8 h)?
Its value is 5 × 10^5 cfu/ml.

And the “OD, average of 3 measurements” value (totarol 0.01%, 8 h)?
The value was 0.298.

And the “viable count” value (totarol 0.01%, 16 h)?
The value was 6.4 × 10^6 cfu/ml.

What about the “OD, average of 3 measurements” value (totarol 0.01%, 16 h) of the same compound?
The value was 0.871.

What about the “viable count” value (totarol 0.01%, 24 h) of the same compound?
The value was 3.4 × 10^7 cfu/ml.

And the OD (totarol 0.01%, 24 h)?
Its OD is 1.445.

And the “viable count” value (totarol 0.02%, 0 h)?
The value was 7.5 × 10^5 cfu/ml.

And the “OD, average of 3 measurements” value (totarol 0.02%, 0 h)?
The value was 0.330.

And the “viable count” value (totarol 0.02%, 8 h)?
The value was 1.0 × 10^5 cfu/ml.

What about the “OD, average of 3 measurements” value (totarol 0.02%, 8 h) of the same compound?
The value was 0.299.

And the “viable count” value (totarol 0.02%, 16 h)?
Its value is 5.1 × 10^6 cfu/ml.

What about the “OD, average of 3 measurements” value (totarol 0.02%, 16 h) of the same compound?
Its value is 0.837.

And the “viable count” value (totarol 0.02%, 24 h)?
Its value is 3.1 × 10^7 cfu/ml.

And the OD (totarol 0.02%, 24 h)?
The OD was 1.375.

What about the “viable count” value (totarol 0.04%, 0 h) of the same compound?
Its value is 2.6 × 10^5 cfu/ml.

And the “OD, average of 3 measurements” value (totarol 0.04%, 0 h)?
The value was 0.398.

And the “viable count” value (totarol 0.04%, 8 h)?
The value was 1.6 × 10^5 cfu/ml.

What about the “OD, average of 3 measurements” value (totarol 0.04%, 8 h) of the same compound?
The value was 0.370.

And the “viable count” value (totarol 0.04%, 16 h)?
The value was 2.4 × 10^5 cfu/ml.

What about the “OD, average of 3 measurements” value (totarol 0.04%, 16 h) of the same compound?
The value was 0.379.

What about the “viable count” value (totarol 0.04%, 24 h) of the same compound?
The value was 2.4 × 10^5 cfu/ml.

What about the OD (totarol 0.04%, 24 h) of the same compound?
Its OD is 0.397.

And the “viable count” value (totarol 0.08%, 0 h)?
The value was 3.2 × 10^5 cfu/ml.

What about the “OD, average of 3 measurements” value (totarol 0.08%, 0 h) of the same compound?
Its value is 0.401.

What about the “viable count” value (totarol 0.08%, 8 h) of the same compound?
Its value is 1.2 × 10^4 cfu/ml.

And the “OD, average of 3 measurements” value (totarol 0.08%, 8 h)?
Its value is 0.413.

And the “viable count” value (totarol 0.08%, 16 h)?
Its value is 3.5 × 10^4 cfu/ml.

And the “OD, average of 3 measurements” value (totarol 0.08%, 16 h)?
Its value is 0.368.

And the “viable count” value (totarol 0.08%, 24 h)?
Its value is 5 × 10^4 cfu/ml.

And the OD (totarol 0.08%, 24 h)?
Its OD is 0.357.

And the “viable count” value (totarol 0.16%, 0 h)?
Its value is 3.7 × 10^5 cfu/ml.

What about the “OD, average of 3 measurements” value (totarol 0.16%, 0 h) of the same compound?
Its value is 0.472.

And the “viable count” value (totarol 0.16%, 8 h)?
The value was 4 × 10^4 cfu/ml.

And the “OD, average of 3 measurements” value (totarol 0.16%, 8 h)?
The value was 0.320.

What about the “viable count” value (totarol 0.16%, 16 h) of the same compound?
Its value is 7.1 × 10^4 cfu/ml.

What about the “OD, average of 3 measurements” value (totarol 0.16%, 16 h) of the same compound?
Its value is 0.346.

And the “viable count” value (totarol 0.16%, 24 h)?
The value was 4.1 × 10^4 cfu/ml.

And the OD (totarol 0.16%, 24 h)?
The OD was 0.371.

Reference: US11534412B2, “Application of totarol and pharmaceutical composition containing totarol” (Emergopharm SP. Z O.O. SP.K., priority 2017, dated 2022)
